Measured values reported in patent US20260042764A1, “COMPOSITIONS AND METHODS FOR INHIBITION OF KRAS” (TheRas, Inc., priority 2022, published 2026).

Columns and labels:
[1] = molecular target: T1, Avi-KRAS WT (1-169) GppNHp/RAF1 RBD-3xFLAG (52-151) (Homo sapiens, UniProt P01116); test: Raf1-KRAS WT-GppNHP disruption HTRF assay (Biological Example 1); type: binding
T1 construct: Avi-KRAS WT (1-169)
Outline: (§1)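 Compounds were tested for disruption of KRAS–RAF1 RBD binding by HTRF in 50 mM Tris pH 7.5, 100 mM NaCl, 5 mM MgCl2, 0.1% BSA, 0.01% Tween, 10% DMSO. Protein mix was incubated 1 h at room temperature with shaking, then detection reagents added for another 1 h. Activity expressed as percent of DMSO control.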

[2] = system: GP2d cells (KRAS G12D); test: Cell-based pERK HTRF assay in GP2d cell (Biological Example 2); conditions: GP2d (KRAS G12D) cells, pERK HTRF
Outline: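 Phospho-ERK is measured by HTRF following a 60 min compound exposure at 0.25% DMSO, with a 9-point half-log curve topping at 1 μM or 100 nM.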

[3] = system: SW620 cells (KRAS G12V); test: Cell-based pERK HTRF assay in SW620 cell (Biological Example 4); conditions: pERK HTRF
Outline: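 This assay measures inhibition of ERK phosphorylation downstream of KRAS G12V in intact SW620 cells. Compounds are applied for 4 h over nine half-log concentrations starting at 1 μM, and pERK is quantified by HTRF.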

[4] = molecular target: T2, Avi-KRAS G12V (1-169) GppNHp/RAF1 RBD-3xFLAG (52-151) (Homo sapiens, UniProt P01116, G12V); test: Raf1-KRAS G12V-GppNHP disruption HTRF assay (Biological Example 1); type: binding
T2 construct: Avi-KRAS G12V (1-169)
Outline: as §1

[5] = molecular target: T3, Avi-KRAS G12D (1-169) GppNHp/RAF1 RBD-3xFLAG (52-151) (Homo sapiens, UniProt P01116, G12D); test: Raf1-KRAS G12D-GppNHP disruption HTRF assay (Biological Example 1); type: binding
T3 construct: Avi-KRAS G12D (1-169)
Outline: as §1

[6] = molecular target: T4, Avi-KRAS G12R (1-169) GppNHp/RAF1 RBD-3xFLAG (52-151) (Homo sapiens, UniProt P01116, G12R); test: Raf1-KRAS G12R-GppNHP disruption HTRF assay (Biological Example 1); type: binding
T4 construct: Avi-KRAS G12R (1-169)
Outline: as §1

[7] = KRAS WT, GppNHp-loaded, Table 11
[8] = KRAS G12V, GppNHp-loaded, Table 11
[9] = KRAS G12D, GppNHp-loaded, Table 11
[10] = KRAS G12R, GppNHp-loaded, Table 11
[11] = Homo sapiens, SW-620, SW620 (KRAS G12V) cells

T2 sequence (P01116 1-169 isoform P01116-2 G12V): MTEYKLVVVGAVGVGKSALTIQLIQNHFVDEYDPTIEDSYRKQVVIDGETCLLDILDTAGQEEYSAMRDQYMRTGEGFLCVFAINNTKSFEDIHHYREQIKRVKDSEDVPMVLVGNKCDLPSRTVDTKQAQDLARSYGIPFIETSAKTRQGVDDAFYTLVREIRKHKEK
T4 sequence (P01116 1-169 isoform P01116-2 G12R): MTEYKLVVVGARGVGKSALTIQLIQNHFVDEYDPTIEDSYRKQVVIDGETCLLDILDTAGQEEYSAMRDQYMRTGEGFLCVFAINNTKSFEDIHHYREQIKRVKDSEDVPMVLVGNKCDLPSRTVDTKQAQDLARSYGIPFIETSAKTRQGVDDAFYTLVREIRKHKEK
T3 sequence (P01116 1-169 isoform P01116-2 G12D): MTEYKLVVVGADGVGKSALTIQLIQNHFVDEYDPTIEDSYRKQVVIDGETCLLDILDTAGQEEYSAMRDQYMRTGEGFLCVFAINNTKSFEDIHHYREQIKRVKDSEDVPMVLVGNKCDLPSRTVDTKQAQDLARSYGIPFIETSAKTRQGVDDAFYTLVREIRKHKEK
T1 sequence (P01116 1-169 isoform P01116-2): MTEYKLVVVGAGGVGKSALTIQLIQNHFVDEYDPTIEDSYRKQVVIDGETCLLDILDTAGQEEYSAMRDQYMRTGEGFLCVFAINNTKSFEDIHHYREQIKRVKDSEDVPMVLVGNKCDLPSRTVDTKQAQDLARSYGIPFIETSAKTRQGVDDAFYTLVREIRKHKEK

With `CN(c1nc(OC[C@@]23CCCN2C[C@H](F)C3)nc2c(F)c(-c3ccc(F)c4sc(N)c(C#N)c34)c(C(F)(F)F)cc12)[C@]1(CC#N)C[C@@H](O)C1` (atropisomer, axis not shown) [Compound 254] the IC50 [1, 7] was 0.1 to 1 µM, the IC50 [2] was 0.1 to 1 µM and the IC50 ([3]; SW620 (KRAS G12V) cells) was > 1 µM. It also gave an IC50 [4, 8] of 1 to 10 µM, an IC50 [5, 9] of 0.1 to 1 µM and an IC50 [6, 10] of 1 to 10 µM.
For `N#Cc1c(N)sc2c(F)ccc(-c3c(C(F)(F)F)cc4c(N5CC(O)C5)nc(OC[C@@]56CCCN5C[C@H](F)C6)nc4c3F)c12` [Compound 215], the IC50 [1, 7] was 0.1 to 1 µM, the IC50 ([2]; GP2d) was < 0.1 µM and the IC50 [3, 11] was 0.1 to 1 µM. It also gave an IC50 [4, 8] of 0.1 to 1 µM, an IC50 [5, 9] of 0.1 to 1 µM and an IC50 [6, 10] of 0.1 to 1 µM.
In the case of `CCN(c1nc(OC[C@@]23CCCN2C[C@H](F)C3)nc2c(F)c(-c3ccc(F)c4sc(N)c(C#N)c34)c(C(F)(F)F)cc12)[C@H]1CCN(C(=O)[C@@H]2CC2(F)F)[C@@H]1C` (atropisomer, axis not shown) [Compound 693], the IC50 ([1]; KRAS WT, GppNHp-loaded, class symbols) is reported as < 0.1 µM, the IC50 ([2]; GP2d, class symbols) is reported as < 0.1 µM and the IC50 ([3]; Homo sapiens, SW-620, SW620 (KRAS G12V) cells, class symbols) is reported as < 0.1 µM. For the same molecule, the IC50 ([4]; KRAS G12V, GppNHp-loaded, class symbols) was < 0.1 µM, the IC50 ([5]; KRAS G12D, GppNHp-loaded, class symbols) was < 0.1 µM and the IC50 ([6]; KRAS G12R, GppNHp-loaded, class symbols) was < 0.1 µM.
`C[C@H]1[C@@H](N(C)c2nc(OC[C@@]34CCCN3C[C@H](F)C4)nc3c(F)c(-c4ccc(F)c5sc(N)c(C#N)c45)c(C(F)(F)F)cc23)CCN1C(=O)CO` [Compound 240] was tested, and the IC50 [1, 7] was 1 to 10 µM, the IC50 ([2]; GP2d) was 0.1 to 1 µM and the IC50 [3, 11] was > 1 µM. It also gave an IC50 [4, 8] of 1 to 10 µM, an IC50 [5, 9] of 1 to 10 µM and an IC50 [6, 10] of 1 to 10 µM.
For `CN(c1nc(OC[C@@]23CCCN2C[C@H](F)C3)nc2c(F)c(-c3ccc(F)c4sc(N)c(C#N)c34)c(C(F)(F)F)cc12)[C@H]1C[C@H](CF)N(C(=O)C2CC2)C1` [Compound 462], the IC50 ([1]; KRAS WT-GppNHp/RAF1 RBD HTRF) was 0.1 to 1 µM, the IC50 ([2]; GP2d) was < 0.1 µM and the IC50 [3, 11] was < 0.1 µM. The IC50 ([4]; KRAS G12V-GppNHp/RAF1 RBD HTRF) was 0.1 to 1 µM, the IC50 ([5]; KRAS G12D-GppNHp/RAF1 RBD HTRF) was 0.1 to 1 µM and the IC50 ([6]; KRAS G12R-GppNHp/RAF1 RBD HTRF) was 0.1 to 1 µM.
`CCN(c1nc(OC[C@@]23CCCN2C[C@H](F)C3)nc2c(F)c(-c3ccc(F)c4sc(N)c(C#N)c34)c(C(F)(F)F)cc12)[C@@H]1C[C@H](C)N(C(=O)OC)C1` (atropisomer, axis not shown) [Compound 544] was tested, and the IC50 ([1]; KRAS WT-GppNHp/RAF1 RBD HTRF) was 0.1 to 1 µM, the IC50 ([2]; GP2d) was < 0.1 µM and the IC50 [3, 11] was < 0.1 µM. For the same molecule, the IC50 ([4]; KRAS G12V-GppNHp/RAF1 RBD HTRF) was 0.1 to 1 µM, the IC50 ([5]; KRAS G12D-GppNHp/RAF1 RBD HTRF) was 0.1 to 1 µM and the IC50 ([6]; KRAS G12R-GppNHp/RAF1 RBD HTRF) was 0.1 to 1 µM.
`CC1(O)CCN(c2nc(OC[C@@]34CCCN3C[C@H](F)C4)nc3c(F)c(-c4ccc(F)c5sc(N)c(C#N)c45)c(C(F)(F)F)cc23)CC1` [Compound 228] showed an IC50 [1, 7] of 0.1 to 1 µM, an IC50 ([2]; GP2d) of 0.1 to 1 µM and an IC50 [3, 11] of 0.1 to 1 µM. For the same molecule, the IC50 [4, 8] was 1 to 10 µM, the IC50 [5, 9] was 0.1 to 1 µM and the IC50 [6, 10] was 1 to 10 µM.
With `CS(=O)(=O)C1CN(c2nc(OC[C@@]34CCCN3C[C@H](F)C4)nc3c(F)c(-c4ccc(F)c5sc(N)c(C#N)c45)c(C(F)(F)F)cc23)C1` [Compound 223] the IC50 [1, 7] was 0.1 to 1 µM, the IC50 ([2]; GP2d) was 0.1 to 1 µM and the IC50 [3, 11] was 0.1 to 1 µM. The IC50 [4, 8] was 1 to 10 µM, the IC50 [5, 9] was 0.1 to 1 µM and the IC50 [6, 10] was 1 to 10 µM.
In the case of `CC(=O)N1C[C@@H](N(C)c2nc(OC[C@@]34CCCN3C[C@H](F)C4)nc3c(F)c(-c4ccc(F)c5sc(N)c(C#N)c45)c(C(F)(F)F)cc23)C[C@H]1CC#N` [Compound 503], the IC50 ([1]; KRAS WT-GppNHp/RAF1 RBD HTRF) is reported as 1 to 10 µM, the IC50 ([2]; GP2d) is reported as < 0.1 µM and the IC50 [3, 11] is reported as 0.1 to 1 µM. The IC50 ([4]; KRAS G12V-GppNHp/RAF1 RBD HTRF) was 1 to 10 µM, the IC50 ([5]; KRAS G12D-GppNHp/RAF1 RBD HTRF) was 0.1 to 1 µM and the IC50 ([6]; KRAS G12R-GppNHp/RAF1 RBD HTRF) was 1 to 10 µM.
For `Cc1nc(OC[C@@]23CCCN2C[C@H](F)C3)nc2c(F)c(-c3ccc(F)c4sc(N)c(C#N)c34)c(C(F)(F)F)cc12` [Compound 318, 2-amino-7-fluoro-4-[8-fluoro-2-[[(2R,8S)-2-fluoro-1,2,3,5,6,7-hexahydropyrrolizin-8-yl]methoxy]-4-methyl-6-(trifluoromethyl)quinazolin-7-yl]benzothiophene-3-carbonitrile], the IC50 ([1]; KRAS WT-GppNHp/RAF1 RBD HTRF) was 1 to 10 µM, the IC50 ([2]; GP2d) was < 0.1 µM and the IC50 [3, 11] was 0.1 to 1 µM. The IC50 ([4]; KRAS G12V-GppNHp/RAF1 RBD HTRF) was 1 to 10 µM, the IC50 ([5]; KRAS G12D-GppNHp/RAF1 RBD HTRF) was 0.1 to 1 µM and the IC50 ([6]; KRAS G12R-GppNHp/RAF1 RBD HTRF) was 0.1 to 1 µM.
